Source: US8153385B2, “Target protein and target gene in drug designing and screening method” (Reverse Proteomics Research Institute Co., Ltd., priority 2004, dated 2012)

Molecular target: T1, FLJ13397 clone-derived protein (CARP) (Homo sapiens, UniProt Q9H8M7)
T1 construct: A human full-length cDNA clone was expressed as a protein with an N-terminal His tag; His tag (pDEST17 Gateway vector) (N); made in house; host or cells: Escherichia coli BL21star(DE3)pLysS
T1 sequence (Q9H8M7 1-445): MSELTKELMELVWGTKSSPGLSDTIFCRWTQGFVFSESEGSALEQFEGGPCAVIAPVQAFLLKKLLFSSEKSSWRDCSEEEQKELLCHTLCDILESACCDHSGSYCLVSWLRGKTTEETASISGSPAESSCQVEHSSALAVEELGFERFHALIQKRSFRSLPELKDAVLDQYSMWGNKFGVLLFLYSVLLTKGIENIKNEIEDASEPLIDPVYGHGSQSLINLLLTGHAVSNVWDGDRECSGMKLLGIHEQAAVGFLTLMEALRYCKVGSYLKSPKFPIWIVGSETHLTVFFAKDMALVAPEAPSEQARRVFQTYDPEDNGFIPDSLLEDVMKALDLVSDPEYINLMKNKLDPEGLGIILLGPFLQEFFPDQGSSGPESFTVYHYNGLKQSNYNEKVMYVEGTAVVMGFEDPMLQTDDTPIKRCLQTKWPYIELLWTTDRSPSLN
Test: SEC/MS (size exclusion chromatography / mass analysis) interaction analysis between FLJ13397 clone-derived protein and compounds
Format: binding

[1] = compound 1 μM, protein 0 μM (protein-free reference)
[2] = compound 1 μM, protein 23.75 μM
[3] = compound 10 μM, protein 0 μM (protein-free reference)
[4] = compound 10 μM, protein 23.75 μM
[5] = compound 10 μM, protein 47.5 μM
[6] = compound 100 μM, protein 0 μM (protein-free reference)
[7] = compound 100 μM, protein 23.75 μM
[8] = compound 100 μM, protein 47.5 μM
[9] = compound 250 μM, protein 0 μM (protein-free reference)
[10] = compound 250 μM, protein 23.75 μM
[11] = compound 250 μM, protein 47.5 μM

Row | SMILES | spectrum intensity of the extracted mass range (compound in SEC spin column filtrate) [1] | spectrum intensity of the extracted mass range (compound in SEC spin column filtrate) [2] | spectrum intensity of the extracted mass range (compound in SEC spin column filtrate) (compound 1 μM, protein 47.5 μM) | spectrum intensity of the extracted mass range (compound in SEC spin column filtrate) [3] | spectrum intensity of the extracted mass range (compound in SEC spin column filtrate) [4] | spectrum intensity of the extracted mass range (compound in SEC spin column filtrate) [5] | spectrum intensity of the extracted mass range (compound in SEC spin column filtrate) [6] | spectrum intensity of the extracted mass range (compound in SEC spin column filtrate) [7] | spectrum intensity of the extracted mass range (compound in SEC spin column filtrate) [8] | spectrum intensity of the extracted mass range (compound in SEC spin column filtrate) [9] | spectrum intensity of the extracted mass range (compound in SEC spin column filtrate) [10] | spectrum intensity of the extracted mass range (compound in SEC spin column filtrate) [11] | interaction with the FLJ13397-expressed protein (judgement) (judged from increase of spectrum intensity with doses of compound and protein)
1 | CCCOc1ccc2nc(NC(=O)OC)[nH]c2c1 [Oxibendazole] | 570160 | 595458 | 529117 | 525337 | 3533115 | 9671167 | 1292692 | 7303166 | 8921904 | 2449247 | 20401030 | 13559202 | –
2 | CC(C)(C)c1ccc(C(O)CCCN2CCC(C(O)(c3ccccc3)c3ccccc3)CC2)cc1 (stereo not shown) [Terfenadine] | 1817431 | 1889743 | 1281933 | 2641416 | 9434699 | 8393491 | 241452949 | 175843248 | 549040113 | 644365611 | 1389061661 | 1700398168 | concentration-dependent interaction
3 | c1ccc2[nH]c(-c3cscn3)nc2c1 [Thiabendazole] | 61442947 | 42216896 | 47595391 | 21903023 | 45510612 | 41434122 | 60344905 | 64811390 | 63585895 | 40530147 | 93902905 | 125101370 | –
4 | OC(c1ccccc1)(c1ccccc1)C1CCNCC1 [α,α-Diphenyl-4-piperidinomethanol] | 1354498 | 1217276 | 1961004 | 14109120 | 12131847 | 15743409 | 106849236 | 219345185 | 287013305 | 400374746 | 620399620 | 1037919 | –
